Results on 2 sequences are retold here after patent publication US8871716B2, “Use of antimicrobial peptides in regeneration of skin cells” (Korea Advanced Institute of Science and Technology, priority 2010, dated 2014).

One test relates to human skin cell HaCat. Put plainly: boyden chamber assay of skin cell migration. The format is cell-based. Set-up: migration of skin cells relative to a control: dose or concentration left out as unconfirmed. The conditions noted are these: for skin cell migratory activity relative to the control: 1 μM peptide (most effective concentration), HaCat, control: medium without peptide; for migration of skin cells relative to a control: boyden chamber assay. As for the experimental part: To examine whether each of the peptides synthesized in Example 1 could promote the migration of skin cells, a boyden chamber assay was used.
In the chamber of two compartments separated by a microporous membrane, 50 μL of a suspension containing the human skin cell HaCat at a concentration of 5×10^3 CFU/ml was placed in the upper compartment and were allowed to migrate through the pores of the membrane into the lower compartment in which a 0.25˜16 μM dilution of each of the peptides in a skin cell culture medium was present. The cells which migrated into the lower compartment were counted to determine the ability of each of the peptides to promote skin cell […] (FIG. 1). For a control, a skin cell culture medium containing none of the peptides was used.

The next test concerns HaCat. Briefly: scratched wound-healing assay of skin cell regeneration. The format is cell-based, human. The conditions noted are these: 1 μM peptide, 12 hrs incubation. The procedure: To examine whether each of the peptides synthesized in Example 1 can enhance the regeneration of skin cells, a scratched wound-healing assay was used. 900 μL of a suspension containing HaCat at a concentration of 1×10^5 CFU/ml was placed in each well of 12-well plates and incubated for 3 days. […] A clear zone was set at the center of each well of the plate using a yellow tip. After incubation for 12 hrs, a reduced area of the clear zone was measured to determine the effect of each peptide on the regeneration of skin cells (FIG. 2). For a control, no peptides were used.

For another test, the system named is full-thickness wound. Briefly: full-thickness wound healing on the back of mice. It is filed as in vivo. The conditions noted are these: 50 μL of 1 μM peptide applied to wound once a day for two days. The procedure: Mice were shaved on the back using an electric razor, followed by forming a full-thickness wound 1.1 cm in diameter using surgical scissors. Application of 50 μL of 1 μM peptide 17 to the wound was continued for 2 days, after which the size of the wound was measured. The wound healing activity of peptide 17 was expressed by the reduced area of the wound (FIG. 3). As the control, the mice were treated with distilled water instead of peptide 17.

Where no end group is shown, it is not given here.

Turning to “APKAMKLLKKLLKLQKKGI (APKAMKLLKKLLKLQKKGI-NH2) [Peptide 17]”, in the test with human skin cell HaCat, the “skin cell migratory activity relative to the control” value is listed as “about 4.5 times that of the control” and the “migration of skin cells relative to a control” value was 4.5 times higher than a control. For the same sequence, the “rate of regeneration of skin cells (reduced area of clear zone) versus no peptide” value with HaCat is given as 2.5 fold. Further, the “rate of reduction of wound area versus distilled water control” value in the test on full-thickness wound is listed as 7 fold.

Take “APKAMRLLRRLLRLQKKGI (APKAMRLLRRLLRLQKKGI-NH2) [Peptide 26]”: in the test on human skin cell HaCat, the “skin cell migratory activity relative to the control” value is “about 4.5 times that of the control” and the “migration of skin cells relative to a control” value was 4.5 times higher than a control. Moreover, the “rate of regeneration of skin cells (reduced area of clear zone) versus no peptide” value in the test with HaCat turned out to be 2.5 fold.
